Format in all cases: cell-based
One data set deals with HIV-1 IIIB (wild-type). Nature of the data set: HIV inhibition assay in TZM-bl cells, wild-type. Conditions: Human immunodeficiency virus 1, IIIB, read-out: IC50 (TZM, WT). As to the method: (§1) Cells and virus culture: TZM-bl cells (42), HIV-1 IIIB virus (43-45) and HIV-1 IIIB (A17 variant) virus (46) as well are the NNRTI resistant mutants (strain NL4-3) (47) were obtained from the NIH HIV Reagent Program. H9 [derivative of HuT 78]cells (ATCC® HTB176™) were obtained from the American Type Culture Collection (Manassas, Virginia, United States of America). These viruses were grown in H9 cells to high titer, which was tested using a HIV p24 (high sensitivity) The detection kit used was sold under the tradename ALPHALISA® Detection Kit (PerkinElmer, Waltham, Massachusetts, United States of America). The viruses were concentrated using Lenti-X Concentrator (Takara Bio USA, Inc., Mountain View, California, United States of America). Infections of TZM-bl cells with either virus was facilitated with 15 μg/mL DEAE-dextran.
(§2) Compounds were serially diluted starting with 10 mM stocks in DMSO. DMSO concentrations were kept the same for all dilutions used within an assay (either 0.005% or 0.05% depending on highest concentration used). Duplicate 96-well plates were set up with 25 μL compound dilution, 25 μL virus, and 50 μL TZM-bl cells (2×10^5/mL) with DEAE-dextran and incubated at 37° C. 5% CO2 for 48 hr. All compounds were tested in triplicate, with single wells of efavirenz dilutions on each plate. All plates had 3-5 control wells without compound, 1 control well with no cells, and 1 control well with a highly toxic level of DMSO (9%). Inhibition assays were set up in clear tissue-culture treated plates with lysates moved to black assay plates or were set up in black tissue culture-treated plates. Medium was removed and the cells were lysed with Glo Lysis Buffer (Promega, Madison, Wisconsin, United States of America). Luciferase Assay System reagent (Promega, Madison, Wisconsin, United States of America) was added to cells and relative light units (RLU) was measured using an EnSpire instrument (PerkinElmer, Waltham, Massachusetts, United States of America). Toxicity assays were set up in clear tissue culture-treated plates. CellTiter-Blue Cell Viability Assay reagent (Promega) was added to the wells after 46 hr incubation, followed by 2 hr incubation. Sodium lauryl sulfate was added to 1.5% to stop the reaction and the plates were measured for fluorescence (560 nmEx/590 nmEm) using an EnSpire instrument (PerkinElmer, Waltham, Massachusetts, United States of America).

Data set [1] deals with HIV-1 IIIB A17 variant (Y181C/K103N). Nature of the data set: HIV inhibition assay in TZM-bl cells, A17 variant. The conditions noted are these: Human immunodeficiency virus 1, IIIB, TZM-bl, read-out: IC50 (TZM, A17), Table 3, TZM-bl, ± SEM, minimum 6 replicates. How it is done:
as §1, §2

The subject of the next data set is TZM-bl cells. Put plainly: Toxicity assay in TZM-bl cells. As to the method: as §2
Setting [2] is: Table 3, TZM-bl, ± SEM, minimum 6 replicates.

Read-outs that look alike come from different tables or passages of the source.

On to `Cc1cc(S(=O)(=O)n2nc(Nc3ccc(Cl)nc3)nc2N)c(C)cc1Cl` [Compound 27, 1-(4-chloro-2,5-dimethyl-phenyl)sulfonyl-N3-(6-chloro-3-pyridyl)-1,2,4-triazole-3,5-diamine], for which the half-inhibitory concentration (IC50) in the data set with HIV-1 IIIB (wild-type) (setting [2]) is 34.3 ± 9.91 nM; in data set [1] it was above 1000 nM. In the data set with TZM-bl cells, the “Qualitative Cell Toxicity within inhibition range” value is “None”.

For `Cc1cc(C#N)ccc1Nc1nc(N)n(S(=O)(=O)c2cccc3cc(C#N)ccc23)n1` [Compound 4, 5-[[5-amino-3-(4-cyano-2-methyl-anilino)-1,2,4-triazol-1-yl]sulfonyl]naphthalene-2-carbonitrile], the half-maximal inhibitory concentration (IC50) worked out at 13.8 ± 2.64 nM with HIV-1 IIIB (wild-type) (setting [2]) and 287 ± 69.5 nM in data set [1]. Further, the “Qualitative Cell Toxicity within inhibition range” value in the data set on TZM-bl cells is given as “None”.

For the molecule `CC(=O)N1CCc2cc(S(=O)(=O)n3nc(Nc4ccc(Cl)cc4)nc3N)ccc21` [Compound 34, 1-[5-[[5-amino-3-(4-chloroanilino)-1,2,4-triazol-1-yl]sulfonyl]indolin-1-yl]ethanone], the half-maximal inhibitory concentration (IC50) with HIV-1 IIIB (wild-type) (setting [2]) worked out at 92.6 ± 15.5 nM. The “Qualitative Cell Toxicity within inhibition range” value in the data set with TZM-bl cells is on record as “None”.

As for `Cc1nn(C)c(Cl)c1S(=O)(=O)n1nc(Nc2ccc(C#N)c(Cl)c2)nc1N` [Compound 17, 4-[[5-amino-1-(5-chloro-1,3-dimethyl-pyrazol-4-yl)sulfonyl-1,2,4-triazol-3-yl]amino]-2-chloro-benzonitrile], the half-maximal inhibitory concentration (IC50) in the data set on HIV-1 IIIB (wild-type) amounted to 0.305 ± 0.053 nM; in data set [1] it was 905 ± 392 nM. The “Qualitative Cell Toxicity within inhibition range” value in the data set with TZM-bl cells (Table 3, TZM-bl) is listed as “None”.

`N#Cc1ccc2c(S(=O)(=O)n3nc(Nc4c(Cl)cc(Cl)cc4Cl)nc3N)cccc2c1` [Compound 42, 5-[[5-amino-3-(2,4,6-trichloroanilino)-1,2,4-triazol-1-yl]sulfonyl]naphthalene-2-carbonitrile]: the values for the IC50 (in the data set with HIV-1 IIIB (wild-type) (setting [2]); in data set [1]) were 28.1 ± 6.75 nM and above 1000 nM, respectively. Besides, in the data set with TZM-bl cells, the “Qualitative Cell Toxicity within inhibition range” value is “None”.

As for `N#Cc1ccc(Nc2nc(N)n(S(=O)(=O)c3cccc4nc(Cl)ccc34)n2)c(Cl)c1` [Compound 46, 4-[[5-amino-1-[(2-chloro-5-quinolyl)sulfonyl]-1,2,4-triazol-3-yl]amino]-3-chloro-benzonitrile], the IC50 in the data set on HIV-1 IIIB (wild-type) (setting [2]) is 394 ± 264 nM; in data set [1], above 1000 nM. Moreover, the “Qualitative Cell Toxicity within inhibition range” value in the data set on TZM-bl cells is listed as “None”.

As to `CC(C)(C)c1ccc(S(=O)(=O)n2nc(Nc3ccc(Cl)cc3)nc2N)cc1` [Compound 6, 1-(4-tert-butylphenyl)sulfonyl-N3-(4-chlorophenyl)-1,2,4-triazole-3,5-diamine], the IC50 with HIV-1 IIIB (wild-type) (setting [2]) came to 70.2 ± 10.5 nM; in data set [1], 295 ± 56.5 nM. The “Qualitative Cell Toxicity within inhibition range” value in the data set on TZM-bl cells is recorded as “None”.

As to `N#Cc1ccc(Nc2nc(N)n(S(=O)(=O)c3ccc(C(F)(F)F)nc3)n2)c(Cl)c1` [Compound 45, 4-[[5-amino-1-[[6-(trifluoromethyl)-3-pyridyl]sulfonyl]-1,2,4-triazol-3-yl]amino]-3-chloro-benzonitrile], the IC50 in the data set with HIV-1 IIIB (wild-type) (setting [2]) was 36.1 ± 8.67 nM; in data set [1] it was above 1000 nM. Further, in the data set with TZM-bl cells, the “Qualitative Cell Toxicity within inhibition range” value was “None”.

For `N#Cc1cccc(S(=O)(=O)n2nc(Nc3c(Cl)cc(Cl)cc3Cl)nc2N)c1` [Compound 43, 3-[[5-amino-3-(2,4,6-trichloroanilino)-1,2,4-triazol-1-yl]sulfonyl]benzonitrile], the half-maximal inhibitory concentration (IC50) in the data set with HIV-1 IIIB (wild-type) (setting [2]) is 33.7 ± 9.93 nM; in data set [1], above 1000 nM. In addition, in the data set with TZM-bl cells, the “Qualitative Cell Toxicity within inhibition range” value is listed as “None”.

On to `Nc1nc(Nc2ccc(Cl)cc2)nn1S(=O)(=O)c1cc(Cl)sc1Cl` [Compound 41, N3-(4-chlorophenyl)-1-[(2,5-dichloro-3-thienyl)sulfonyl]-1,2,4-triazole-3,5-diamine], for which the IC50 with HIV-1 IIIB (wild-type) (setting [2]) worked out at 10.1 ± 1.69 nM; in data set [1], 3680 ± 10900 nM. Further, the “Qualitative Cell Toxicity within inhibition range” value with TZM-bl cells is “None”.

For the molecule `CN(C)c1cccc2c(S(=O)(=O)n3nc(Nc4ccc(Cl)cc4)nc3N)cccc12` [Compound 23, N3-(4-chlorophenyl)-1-[[5-(dimethylamino)-1-naphthyl]sulfonyl]-1,2,4-triazole-3,5-diamine], the IC50 in the data set with HIV-1 IIIB (wild-type) (setting [2]) is 10.3 ± 2.01 nM; in data set [1], above 1000 nM. Moreover, the “Qualitative Cell Toxicity within inhibition range” value in the data set with TZM-bl cells is “None”.

For `N#C/C=C/c1ccc(Nc2nc(N)n(S(=O)(=O)c3cccc4cc(C#N)ccc34)n2)cc1` [Compound 10, 5-[[5-amino-3-[4-[(E)-2-cyanovinyl]anilino]-1,2,4-triazol-1-yl]sulfonyl]naphthalene-2-carbonitrile], the IC50 in the data set on HIV-1 IIIB (wild-type) (setting [2]) was determined as 1.52 ± 0.307 nM; in data set [1], 215 ± 57.4 nM. Besides, in the data set on TZM-bl cells, the “Qualitative Cell Toxicity within inhibition range” value is reported as “None”.

As to `Nc1nc(Nc2ccc(Cl)cc2)nn1S(=O)(=O)c1ccc(-c2ccc(F)cc2)cc1` [Compound 30, N3-(4-chlorophenyl)-1-[4-(4-fluorophenyl)phenyl]sulfonyl-1,2,4-triazole-3,5-diamine], in the data set on HIV-1 IIIB (wild-type) (setting [2]), the IC50 turned out to be 21.5 ± 4.42 nM. Further, in the data set with TZM-bl cells, the “Qualitative Cell Toxicity within inhibition range” value was “None”.

As for `N#CCc1ccc(Nc2nc(N)n(S(=O)(=O)c3cccc4cc(C#N)ccc34)n2)cc1` [Compound 13, 5-[[5-amino-3-[4-(cyanomethyl)anilino]-1,2,4-triazol-1-yl]sulfonyl]naphthalene-2-carbonitrile], the IC50 with HIV-1 IIIB (wild-type) (setting [2]) amounted to 0.277 ± 0.0367 nM; in data set [1], 42.9 ± 34.7 nM. In addition, the “Qualitative Cell Toxicity within inhibition range” value with TZM-bl cells is listed as “None”.

Regarding `N#Cc1ccc(Nc2nc(N)n(S(=O)(=O)c3c(Cl)nc4sccn34)n2)cc1` [Compound 8, 4-[[5-amino-1-(6-chloroimidazo[2,1-b]thiazol-5-yl)sulfonyl-1,2,4-triazol-3-yl]amino]-benzonitrile], the IC50 in the data set on HIV-1 IIIB (wild-type) (setting [2]) stood at 1.77 ± 0.327 nM; in data set [1], 705 ± 1010 nM. Further, the “Qualitative Cell Toxicity within inhibition range” value in the data set with TZM-bl cells is given as “None”.

As for `Nc1nc(Nc2ccc(Cl)cc2)nn1S(=O)(=O)c1cccc2nonc12` [Compound 37, 1-(2,1,3-benzoxadiazol-4-ylsulfonyl)-N3-(4-chlorophenyl)-1,2,4-triazole-3,5-diamine], the values for the IC50 (in the data set with HIV-1 IIIB (wild-type) (setting [2]); in data set [1]) were 10.2 ± 1.46 nM and above 1000 nM, respectively. Also, in the data set with TZM-bl cells, the “Qualitative Cell Toxicity within inhibition range” value is “None”.

Take `Nc1nc(Nc2ccc(Cl)cc2)nn1S(=O)(=O)c1cnc(Cl)c(Br)c1` [Compound 29, 1-[(5-bromo-6-chloro-3-pyridyl)sulfonyl]-N3-(4-chlorophenyl)-1,2,4-triazole-3,5-diamine]: the IC50 with HIV-1 IIIB (wild-type) (setting [2]) was 14.3 ± 7.27 nM. Moreover, the “Qualitative Cell Toxicity within inhibition range” value with TZM-bl cells is listed as “None”.

For the molecule `Nc1nc(Nc2ccc(Cl)cc2)nn1S(=O)(=O)c1ccc2cc(Cl)ccc2c1` [Compound 25, 1-[(6-chloro-2-naphthyl)sulfonyl]-N3-(4-chlorophenyl)-1,2,4-triazole-3,5-diamine], the IC50 in the data set on HIV-1 IIIB (wild-type) (setting [2]) was determined as 4.54 ± 0.33 nM. Further, the “Qualitative Cell Toxicity within inhibition range” value in the data set on TZM-bl cells is “None”.

On to `Nc1nc(Nc2ccc(Cl)cc2)nn1S(=O)(=O)CCN1C(=O)c2ccccc2C1=O` [Compound 35, 2-[2-[[5-amino-3-(4-chloroanilino)-1,2,4-triazol-1-yl]sulfonyl]ethyl]isoindoline-1,3-dione], for which the IC50 in the data set on HIV-1 IIIB (wild-type) (setting [2]) came to 14.3 ± 7.27 nM. Moreover, the “Qualitative Cell Toxicity within inhibition range” value in the data set with TZM-bl cells is recorded as “None”.

Regarding `Cc1cc(C)c(Nc2nc(N)n(S(=O)(=O)c3ccc(Br)c(C)c3)n2)c(C)c1` [Compound 31, 1-(4-bromo-3-methyl-phenyl)sulfonyl-N3-(2,4,6-trimethylphenyl)-1,2,4-triazole-3,5-diamine], in the data set with HIV-1 IIIB (wild-type) (setting [2]), the IC50 was 19.4 ± 3.67 nM. Further, the “Qualitative Cell Toxicity within inhibition range” value with TZM-bl cells is listed as “None”.

As to `C=CC(=O)N(C)c1ccc(S(=O)(=O)n2nc(Nc3ccc(C#N)cc3)nc2N)cc1` [Compound 24, N-[4-[[5-amino-3-(4-cyanoanilino)-1,2,4-triazol-1-yl]sulfonyl]phenyl]-N-methyl-prop-2-enamide], in the data set with HIV-1 IIIB (wild-type) (setting [2]), the IC50 worked out at 7.88 ± 0.643 nM. The “Qualitative Cell Toxicity within inhibition range” value in the data set on TZM-bl cells is “None”.

For `Cn1cnc(S(=O)(=O)n2nc(Nc3ccc(Cl)cc3)nc2N)c1` [Compound 28, N3-(4-chlorophenyl)-1-(1-methylimidazol-4-yl)sulfonyl-1,2,4-triazole-3,5-diamine], the IC50 with HIV-1 IIIB (wild-type) (setting [2]) turned out to be 83.7 ± 19.3 nM. Besides, the “Qualitative Cell Toxicity within inhibition range” value with TZM-bl cells is recorded as “None”.

As to `C=CC(=O)Nc1cc(C)c(S(=O)(=O)n2nc(Nc3ccc(Cl)cc3)nc2N)c(C)c1` [Compound 26, N-[4-[[5-amino-3-(4-chloroanilino)-1,2,4-triazol-1-yl]sulfonyl]-3,5-dimethyl-phenyl]prop-2-enamide], the IC50 in the data set with HIV-1 IIIB (wild-type) (setting [2]) was found to be 5.78 ± 0.476 nM. The “Qualitative Cell Toxicity within inhibition range” value in the data set on TZM-bl cells is “None”.
